Columns and labels:
[1] = Sustained release property in the rabbit knee joint (residual ratio in synovial fluid and synovium); details: intra-articular
[2] = test system: 1% silver nitrate-induced pain model; assay: 1% silver nitrate-induced pain model in rats
Description: As General anesthesia, inhalation of isoflurane (Forane (registered trade mark), Dainippon Pharmaceutical Co., Ltd., concentration 3.0%, flow rate 2.0 liters/min) filled in a small animal anesthetizer (TK-4, manufactured by BioMachinery Co., Ltd.) was employed.
Rats (Crj:SD (SPF), male, 6-weeks-old) were fixed in the supine position under ether anesthesia, and a wide area around the knee joint of the left hind paw was shaved with an electric clipper. After disinfecting the area around the joint by spraying 70% alcohol, 1% silver nitrate solution was administered into the knee joint cavity of the left hind paw at a dose of 50 μl/joint using a 29 G needle-tipped syringe for insulin use (manufactured by Terumo Corp.).
Regarding the administration method, as in the case of algesic substances, the area around the joint was disinfected by spraying 70% alcohol under inhalation anesthesia by isoflurane, and each test substance was administered into the knee joint cavity of the left hind paw at a dose of […] using a 29 G needle-tipped syringe for insulin use (n=5).
The walking of each group was visually observed and scored by using the following pain score table which was figured walking in score under blinded conditions.
Score • 0: Normal (includes nearly normal) • 1: Mild claudication • 2: Severe claudication • 3: Walking on three legs
In addition, the weight loading on the silver nitrate-injected paw (left hind paw) was measured by using a weighting activity analgesia meter (manufactured by Tokken Inc.), and the weight loading rate was calculated by dividing the measured value by the body weight.
Test substances were orally administered by using a sonde for oral administration to rat (manufactured by Fuchigami Kikai) at a dose of 1 ml/head.
In FIG. 6, the “Diclofenac Na (p.o.) 50 mg/kg” corresponds to the above-described (i) (high dose group), and the “Diclofenac Na (p.o.) 1 mg/kg” corresponds to the above-described (ii) (low dose group).

Filter pass through test = type: physicochemical; details: 1.0% by weight in PBS, 0.45 μm porous filter (25 mm in diameter), 24° C., 5.0 kg/cm^2
Description: PBS in which each substance to be tested was dissolved to a concentration of 1.0% by weight was prepared. At a temperature of 24° C. under pressure of 5.0 kg/cm^2, each solution of the substances to be tested prepared in the following examples was passed through a 0.45 μm porous filter (25 mm in diameter), and the passed amount (ml) per 1 minute was measured A case in which 2 ml or more was passed is shown by “A”, and a case in which less than 2 ml was passed by “B”, and a case in which none passed by “C”.

[3] = Appearance of the 1.0% by weight solution in PBS; type: physicochemical; details: dissolved in PBS to 1.0% by weight
[4] = intra-articular injection 24 hours after 1% silver nitrate, in comparison with PBS

| Molecule | analgesic effect (pain score, walking) [2, 4] | filter pass through test (passed amount per 1 minute) (Filter pass through test) | further results |
| --- | --- | --- | --- |
| CC(C(=O)O)c1cccc(C(=O)c2ccccc2)c1 (centres unmarked) [KP, ketoprofen] |  |  | time until KP disappeared from the synovial fluid and synovium [1]: ≤ 6 h; time until KP disappeared from the synovium [1]: ≤ 6 h |
| O=C(O)Cc1ccccc1Nc1c(Cl)cccc1Cl [diclofenac sodium, reference compound] | did not show significant effect in comparison with PBS |  | adverse effects observed ([2]; oral administration, high dose 50 mg/kg): positive fecal occult blood reaction, jaundice-like symptom and body weight loss were observed from the next day; analgesic effect (pain score, walking) ([2]; oral administration, high dose 50 mg/kg (1% suspension in 10% gum arabic, 1 ml/head)): showed analgesic effect; analgesic effect (pain score, walking) ([2]; oral administration, low dose 1 mg/kg (0.02% suspension in 10% gum arabic, 1 ml/head)): the effect was not found in comparison with the PBS intra-articular injection group |
| Aminoethanol-diclofenac-Introduced Sodium Hyaluronate (DS 14.7%) [Example 39] | showed remarkable analgesic effect |  |  |
| Aminopropanol-acetylsalicylic Acid-Introduced Sodium Hyaluronate [Example 11] |  | A (2 ml or more was passed) | appearance of the solution [3]: colorless and transparent liquid |
| Aminopropanol-diclofenac-Introduced Sodium Hyaluronate (65 kDa) Sodium (DS 17.1%) [Example 37] | showed diminished analgesic effect in comparison with the case of the molecular weight of 800,000 |  |  |
| Aminopropanol-diclofenac-Introduced Sodium Hyaluronate (DS 4.3%) [Example 35] | showed analgesic effect |  |  |
| Aminopropanol-diclofenac-Introduced Sodium Hyaluronate (DS 9.7%) [Example 36] | showed a remarkable analgesic effect in comparison with PBS |  |  |
| Aminopropanol-diclofenac-Introduced Sodium Hyaluronate [Example 19] |  |  | analgesic effect (pain score, walking) ([2]; intra-articular injection 24 hours after 1% silver nitrate, in comparison with PBS, listed as DS 18.2%): showed a remarkable analgesic effect in comparison with PBS; analgesic effect (pain score, walking) ([2]; intra-articular injection 24 hours after 1% silver nitrate, in comparison with PBS, listed as diclofenac-introduced hyaluronic acid derivative): showed the analgesic effect after the administration |
| Aminopropanol-felbinac-Introduced Hyaluronic Acid [Example 13] |  | A (2 ml or more was passed) | appearance of the solution [3]: colorless and transparent liquid |
| Aminopropanol-fenbufen-Introduced Hyaluronic Acid [Example 15] |  | A (2 ml or more was passed) |  |
| Aminopropanol-flurbiprofen-Introduced Sodium Hyaluronate [Example 9] |  | A (2 ml or more was passed) | appearance of the solution [3]: colorless and transparent liquid |
| Aminopropanol-ibuprofen-Introduced Sodium Hyaluronate [Example 7] |  | A (2 ml or more was passed) |  |
| Aminopropanol-mefenamic Acid-Introduced Hyaluronic Acid [Example 17] |  | A (2 ml or more was passed) | appearance of the solution [3]: colorless and transparent liquid |
| Diaminopropane-diclofenac-Introduced Sodium Hyaluronate (DS 18.1%) [Example 41] | had no effect on the test system of this example |  |  |

From patent publication US7879817B2, “Hyaluronic acid derivative and drug containing the same” (priority 2004, dated 2011)
